Reference: patent US5185363A, “Urea based lipoxygenase inhibiting compounds” (Abbott Laboratories, priority 1991, dated 1993)

How the values were obtained:
[1] = molecular target: T1, 5-Lipoxygenase from RBL-1 20,000 xg Supernatant (Rattus norvegicus, UniProt P12527); assay: In vitro inhibition of 5-lipoxygenase from RBL-1 20,000 xg supernatant; type: biochemical; conditions: radiolabeled arachidonic acid
T1 construct: supermatant from 1.5 million homogenized RBL-1 cells; endogenous in cells; host or cells: RBL-1 cells, 20,000 x g supernatant of homogenate
T1 sequence (P12527 1-673): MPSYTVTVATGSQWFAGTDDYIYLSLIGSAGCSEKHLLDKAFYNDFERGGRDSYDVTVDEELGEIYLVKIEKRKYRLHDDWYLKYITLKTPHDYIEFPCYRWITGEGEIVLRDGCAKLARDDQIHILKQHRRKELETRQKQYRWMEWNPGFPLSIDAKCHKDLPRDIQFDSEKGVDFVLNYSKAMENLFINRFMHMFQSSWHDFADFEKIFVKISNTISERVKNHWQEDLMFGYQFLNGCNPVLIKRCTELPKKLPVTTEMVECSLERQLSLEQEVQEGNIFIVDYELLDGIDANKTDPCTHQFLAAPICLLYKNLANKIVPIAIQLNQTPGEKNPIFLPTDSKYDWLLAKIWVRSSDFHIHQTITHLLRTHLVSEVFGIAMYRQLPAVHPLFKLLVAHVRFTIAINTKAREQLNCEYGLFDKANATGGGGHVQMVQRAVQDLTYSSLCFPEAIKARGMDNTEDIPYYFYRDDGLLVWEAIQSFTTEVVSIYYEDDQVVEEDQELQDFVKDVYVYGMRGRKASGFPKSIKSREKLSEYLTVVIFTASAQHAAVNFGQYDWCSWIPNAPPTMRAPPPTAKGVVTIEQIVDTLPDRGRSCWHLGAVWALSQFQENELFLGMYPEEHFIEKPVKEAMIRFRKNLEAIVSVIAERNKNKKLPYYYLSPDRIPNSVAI
Protocol: Assays to determine 5-lipoxygenase inhibitory activity were performed in […] incubations containing the 20,000xg supermatant from 1.5 million homogenized RBL-1 cells and various concentrations of the test compound. Reactions were initiated by addition of radiolabeled arachidonic acid and terminated by acidification and ether extraction. Reaction products were separated from nonconverted substrate by thin layer chromatography and measured by liquid scintillation spectroscopy. All incubations are performed in triplicate. Inhibition of 5-lipoxygenase activity was calculated as the ratio of the amount of product formed in the presence and absence of inhibitor. […] (Dyer, R.D.; Haviv, F.; Hanel, A. M.; Bornemier, D. A.; Carter, G. W. Fed. Proc., Fed. Am. Soc. Exp. Biol. 1984, 43, 1462A).

leukotriene biosynthesis = assay: In vivo inhibition of leukotriene biosynthesis, rat peritoneal anaphylaxis model; conditions: 1 h, 200 μmol/kg oral dose, gavage one hour prior to antigen challenge, read-out: Percent Inhibition
Protocol: Inhibition of the biosynthesis of leukotrienes in vivo after oral administration of compound was determined using a rat peritoneal anaphylaxis model in a similar manner as that described by Young and coworkers (Young, P. R.; Dyer, R. D.; Carter, G. W. Fed. Proc., Fed. Am. Soc. Exp. Biol. 1985, 44, 1185). In this model rats were injected intraperitoneally (ip) with rabbit antibody to bovine serum albumin (BSA) and three hours later injected ip with BSA to induce an antgen-antibody response. Rats were sacrificed 15 minutes after this challenge and the peritoneal fluids were collected and analyzed for leukotriene levels. Test compounds were administered by gavage one hour prior to the antigen challenge. Percent inhibition values were determined by comparing the treatment group to the mean of the control group.

5-lipoxygenase = conditions: cited from earlier work

For `CC(c1ccc(F)cc1)N(O)C(N)=O` (stereo not drawn) [Example 109, N-Hydroxy-N-(1-(4-fluorophenyl)ethyl) urea], the IC50 [1] was 1800 nM and the inhibition in vivo at 200 µmol/kg (leukotriene biosynthesis) was 98%.
For `O=C(O)c1cc(/N=N/c2ccc(S(=O)(=O)Nc3ccccn3)cc2)ccc1O` [sulfasalazine], the 5-lipoxygenase inhibition (5-lipoxygenase) is given as “weak 5-lipoxygenase inhibitor”.
Molecule `NC(=O)N(O)Cc1ccc(OCc2ccccc2)cc1` [Example 5, N-hydroxy-N-(4-phenylmethoxyphenylmethyl) urea] has an IC50 [1] of 610 nM and an inhibition in vivo at 200 µmol/kg (leukotriene biosynthesis) of 74%.
For `CC(c1ccc(Br)cc1)N(O)C(N)=O` (stereo not drawn) [Example 97, N-Hydroxy-N-1-(4-bromophenyl)ethylurea], the IC50 [1] was 200 nM and the inhibition in vivo at 200 µmol/kg (leukotriene biosynthesis) was 94%.
Work on `CNC(=O)N(O)Cc1ccc(Br)cc1` [Example 101, N-Hydroxy-N-4-bromobenzyl-N'-methyl urea] yielded an IC50 [1] of 300 nM and an inhibition in vivo at 200 µmol/kg (leukotriene biosynthesis) of 93%.
With `Cc1ccc(C(C)N(O)C(N)=O)cc1` (stereo not drawn) [Example 113, N-Hydroxy-N-(1-(4-methylphenyl)ethyl) urea] the IC50 [1] was 300 nM and the inhibition in vivo at 200 µmol/kg (leukotriene biosynthesis) was 94%.
With `COc1cc(C(C)N(O)C(N)=O)cc(OC)c1OCc1ccccc1` (stereo not drawn) [Example 7, N-hydroxy-N-(1-(4-phenylmethoxy-3,5-dimethoxyphenyl)ethyl) urea] the IC50 [1] was 1400 nM and the inhibition in vivo at 200 µmol/kg (leukotriene biosynthesis) was 88%.
`NC(=O)N(O)Cc1ccc(Br)cc1` [Example 100, N-Hydroxy-N-4-bromobenzylurea] showed an IC50 [1] of 800 nM and an inhibition in vivo at 200 µmol/kg (leukotriene biosynthesis) of 95%.
`CC(c1cccs1)N(O)C(N)=O` (stereo not drawn) [Example 47, N-hydroxy-N-(1-thien-2-yl)ethyl urea] gave an IC50 [1] of 3700 nM and an inhibition in vivo at 200 µmol/kg (leukotriene biosynthesis) of 94%.
`CNC(=O)N(O)Cc1cccs1` [Example 50, N-hydroxy-N-(thien-2-yl)methyl-N'-methyl urea] gave an IC50 [1] of 6700 nM and an inhibition in vivo at 200 µmol/kg (leukotriene biosynthesis) of 90%.
In the case of `NC(=O)N(O)Cc1ccsc1` [Example 44, N-Hydroxy-N-(thien-3-yl)methyl urea], the IC50 [1] is reported as 4900 nM and the inhibition in vivo at 200 µmol/kg (leukotriene biosynthesis) is reported as 87%.
